Patent publication US20250195542A1, “METABOLIC DISEASE THERAPEUTIC AGENT OR PREVENTIVE AGENT” (Peking University, priority 2022, published 2025)

Columns and labels:
[1] = target: T1, RDH10 (Mus musculus, UniProt Q8VCH7); assay: Protein fishing (pull-down) with molecular probe and proteomics analysis; assay type: binding, C57BL/6J mice
T1 construct: Take approximately 50 mg of liver tissue from C57BL/6J mice and add 1 mL of RIPA lysis buffer; from tissue; host or cells: mouse liver (C57BL/6J) lysate
T1 sequence (Q8VCH7 1-341): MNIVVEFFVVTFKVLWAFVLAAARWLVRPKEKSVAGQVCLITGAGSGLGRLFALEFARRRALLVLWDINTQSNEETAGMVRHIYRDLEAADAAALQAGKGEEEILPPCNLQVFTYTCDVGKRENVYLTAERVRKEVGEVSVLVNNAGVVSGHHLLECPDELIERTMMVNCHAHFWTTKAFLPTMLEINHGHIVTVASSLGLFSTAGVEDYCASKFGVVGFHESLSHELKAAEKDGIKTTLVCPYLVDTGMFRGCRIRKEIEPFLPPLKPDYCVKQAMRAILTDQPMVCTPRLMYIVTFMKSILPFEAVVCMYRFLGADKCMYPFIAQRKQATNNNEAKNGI
Description: • 1. Preparation of Liver Protein: Take approximately 50 mg of liver tissue from C57BL/6J mice and add 1 mL of RIPA lysis buffer. Lyse the proteins on ice, then centrifuge at 12,000 rpm for 30 minutes at 4° C. Collect the supernatant, measure the protein concentration using BCA method, and dilute to 1 mg/mL with PBS. • 2. Sample Preparation: Prepare new 1.5 mL EP tubes and divide them into control group, drug group, and competitive inhibition group. Add 100 μL of PBS solution containing 40 μM Biotin to the control group, 100 μL of PBS solution containing 40 μM ACS-biotin (prepared in Example 1) to the drug group, and 100 μL of PBS solution containing 40 μM ACS-biotin and 400 μM ACS to the competitive inhibition group. Then, add 100 μL of liver protein lysate (1 mg/mL) to each tube and incubate on a shaking incubator at 4° C. for 2 hours. • 3. Washing Streptavidin Beads: Add 100 μL of streptavidin beads to new 1.5 mL EP tubes and centrifuge at 2,700 rpm for 1 minute. Discard the supernatant and wash the beads with 100 μL of PBS three times. • 4. Binding and Washing: Add the solutions from step 2 to the washed streptavidin beads. Incubate on a shaking incubator at 4° C. for 2 hours, then centrifuge at 2,700 rpm for 1 minute. Discard the supernatant and wash the beads with 100 μL of PBS three times. • 5. Protein Elution: Add 50 μL of PBS to the beads, mix well, and then add 5×SDS-PAGE sample buffer. Boil for 5 minutes and centrifuge at 13,000 rpm for 5 minutes. Store the supernatant at −20° C. for SDS-PAGE gel electrophoresis. • 6. Protein Detection: Stain with Coomassie Brilliant Blue and cut the gel for proteomics analysis.

[2] = tested on: FGF21; assay: FGF21 gene expression in the liver of MCD mice (qPCR); assay type: in vivo, C57BL/6J mice; conditions: oral 4 weeks, Antcin C 20 and 40 mg/kg, AK-GLU 26.6 mg/kg, compared to DEA 20 mg/kg, FIG. 6
Description: Four-week-old male C57BL/6J mice were purchased from the Experimental Animal Center, Peking University Health Science Center. The mice were randomly divided into groups, with 10 mice per group. Methionine choline-deficient diet (MCD) was used to induce non-alcoholic steatohepatitis (NASH), forming the MCD model mice. The model mice were treated with an oral administration of drugs for 4 weeks. After the final treatment, the mice were fasted overnight, and then sacrificed. Serum and liver tissues were stored at −80° C., which could be compared with untreated MCD mice (“MCD”) and normal mice (“Nor” or “Normal”). The dosing amounts for each group were as follows: low-dose Antcin C (“AC-L”): 20 mg/kg; high-dose Antcin C (“AC-H”): 40 mg/kg; DEA: 20 mg/kg; AK-GLU: 26.6 mg/kg.
Total RNA Extraction: Liver tissue samples from the mice (10-20 mg) were cut into pieces and added to 1 ml of Tranzol. The mixture was placed on ice and homogenized, then transferred to an RNase-free and DNase-free EP tube. To each tube, 0.2 ml of chloroform was added, and the mixture was vigorously shaken for 15 seconds. After incubation at low temperature for 3 minutes, the mixture was centrifuged at 12000 rpm for 15 minutes at 4° C. The aqueous upper phase was transferred to a new EP tube, and an equal volume of isopropanol was added. […] RNA concentration was measured using a spectrophotometer with an A260/280 ratio. […]

[3] = tested on: non-alcoholic steatohepatitis (NASH) in MCD mice; assay: Serum ALT in MCD mice (NASH model), Example 6; assay type: in vivo, C57BL/6J mice; conditions: oral 4 weeks, Antcin K 20 mg/kg, Antcin C 20 and 40 mg/kg, AK-GLU 26.6 mg/kg, better than obeticholic acid 10 mg/kg and DEA 20 mg/kg, FIG. 8
Description: (§1) The MCD mouse model and drug administration method were the same as in Example 4. After the final treatment, the mice were sacrificed, and the liver tissue samples were fixed overnight in 4% paraformaldehyde, embedded in paraffin, and sectioned. The sections were stained with hematoxylin and eosin (H&E) according to the following procedure: immerse the sections in the following solutions sequentially: xylene (I) for 15 minutes, xylene (II) for 15 minutes, 50% xylene-absolute ethanol for 2 minutes, absolute ethanol (I) for 5 minutes, absolute ethanol (II) for 5 minutes, 80% ethanol for 5 minutes, distilled water for 5 minutes, hematoxylin staining solution for 5 minutes, rinse with running water for 5 minutes, 1% hydrochloric acid ethanol for 30 seconds, rinse with water for 30 seconds, wash with distilled water for 5 seconds, 0.5% eosin staining solution for 2 minutes, rinse with distilled water for 30 seconds, 80% ethanol for 30 seconds, 95% ethanol (I) for 1 minute, 95% ethanol (II) for 1 minute, absolute ethanol (I) for 3 minutes, absolute ethanol (II) for 3 minutes, xylene (I) for 3 minutes, xylene (II) for 3 minutes, and mount with neutral resin.
(§2) The treated groups were compared with untreated MCD mice (“MCD”) and normal mice (“Nor”). The drug administration doses were as follows: positive control obeticholic acid (OCA): 10 mg/kg; Antcin K (AK): 20 mg/kg; low-dose Antcin C (AC-L): 20 mg/kg; high-dose Antcin C (AC-H): 40 mg/kg; DEA: 20 mg/kg; AK-GLU: 26.6 mg/kg.
After the final treatment, the mice were fasted overnight, sacrificed, and blood was collected from the eye vein. The whole blood was allowed to stand for 2 hours, centrifuged at 6000 rpm for 10 minutes, and the serum was obtained.

[4] = tested on: non-alcoholic steatohepatitis (NASH) in MCD mice; assay: Pathological (H&E) staining of liver sections from MCD mice, Example 6; assay type: in vivo, C57BL/6J mice; conditions: oral 4 weeks, Antcin K 20 mg/kg, Antcin C 20 and 40 mg/kg, AK-GLU 26.6 mg/kg, better than obeticholic acid and DEA, FIG. 9
Description: as §1, §2

[5] = tested on: FGF21; assay: Serum FGF21 protein in MCD mice (ELISA); assay type: in vivo, C57BL/6J mice; conditions: oral 4 weeks, Antcin K 20 mg/kg, Antcin C 20 and 40 mg/kg, AK-GLU 26.6 mg/kg, compared to DEA, FIG. 10
Description: The modeling and treatment of MCD mice were conducted as described in Example 4. The treated groups were compared with untreated MCD mice (“MCD”) and normal mice (“Nor”). The dosages for each treatment group were as follows: positive control obeticholic acid (“OCA”): 10 mg/kg; Antcin K (“AK”): 20 mg/kg; low-dose Antcin C (“AC-L”): 20 mg/kg; high-dose Antcin C (“AC-H”): 40 mg/kg; DEA: 20 mg/kg; AK-GLU: 26.6 mg/kg.
The serum sampling method from mice was the same as in Example 6. The FGF21 levels were tested using an ELISA kit (Beyotime), with the following procedure: The microplate was equilibrated at room temperature for 20 minutes. Then, 50 μL of serum samples or different concentrations of standards were added to each well. Next, 100 μL of HRP-conjugated detection antibody was added, and the plate was covered with a sealing film and incubated at 37° C. for 60 minutes. The liquid was discarded, and the plate was dried with absorbent paper. Each well was then washed with 350 μL of washing buffer, left for 1 minute, and the liquid was discarded and dried with absorbent paper. This washing step was repeated 5 times. Then, 50 μL of Substrate A and 50 μL of Substrate B were added to each well and incubated at 37° C. in the dark for 15 minutes. After that, 50 μL of stop solution was added to each well, and the absorbance at 450 nm was measured within 15 minutes. A standard curve was plotted with the absorbance of the standards on the vertical axis and the standard concentrations on the horizontal axis. The serum sample absorbance values were used to determine the FGF21 protein concentrations based on this standard curve.

[6] = tested on: FGF21; assay: FGF21 protein expression in the liver of MCD mice (Western blot); assay type: in vivo, C57BL/6J mice; conditions: oral 4 weeks, Antcin K 20 mg/kg, Antcin C 20 and 40 mg/kg, compared to DEA 20 mg/kg, FIG. 7
Description: The modeling and procedures for MCD mice are as described in Example 4. Comparisons were made between the treated groups and untreated MCD mice (“MCD”) and normal mice (“Normal”). The dosing for each treatment group was as follows: positive drug obeticholic acid (“OCA”): 10 mg/kg; Antcin K (“AK”): 20 mg/kg; low-dose Antcin C (“AC-L”): 20 mg/kg; high-dose Antcin C (“AC-H”): 40 mg/kg; DEA: 20 mg/kg.
Liver tissue (15-20 mg) was homogenized in RIPA lysis buffer on ice, and then centrifuged at 13,000 rpm for 30 minutes at 4° C. The middle layer liquid was transferred to a new centrifuge tube and the protein concentration was measured using BCA method. For each sample, 20 μg of protein was separated by SDS-PAGE and then transferred to a PDVF membrane using Bio-Rad's standard wet transfer system at 200 mA for 60 minutes. Subsequently, the membrane was cut according to protein molecular weight and blocked with 0.5% BSA at room temperature for 60 minutes. The primary antibody was incubated at 4° C. for 14 hours, followed by washing with TBST at room temperature 3 times for 5 minutes each. The secondary antibody was incubated at room temperature for 1 hour, followed by washing with TBST at room temperature 3 times for 10 minutes each. ECL reagent was used for detection.

[7] = tested on: non-alcoholic steatohepatitis; conditions: reported; cited from earlier work

Compound | log2 (ACS-biotin/ACS-biotin+ACS) for RDH10 protein ([1]; 40 μM ACS-biotin vs 40 μM ACS-biotin + 400 μM ACS, FIG. 14C) | log2 (ACS-biotin/Biotin) for RDH10 ([1]; 40 μM ACS-biotin vs 40 μM Biotin, mouse liver protein lysate, FIG. 14B) | gene expression levels of FGF21 in vivo [2] | serum ALT levels [3] | steatosis and ballooning in the liver [4] | serum FGF21 protein levels [5] | FGF21 protein expression levels in liver [6] | effect in preventing and treating non-alcoholic steatohepatitis [7]
25S-Antcin C—CO—NH-PEG2-biotin [ACS-biotin] | > 0 | > 6 | – | – | – | – | – | –
C=C(CC[C@@H](C)[C@H]1CC[C@H]2C3=C(C(=O)C[C@]12C)[C@@]1(C)CC[C@@H](O)[C@](C)(O)[C@@H]1C[C@@H]3O[C@@H]1OC(CO)[C@@H](O)[C@H](O)C1O)C(C)C(=O)O (stereo partly shown) [AK-GLU, Antcin K-7-O-glucoside] | – | – | significantly activated | significantly reduced | significantly reduced | significantly upregulated | – | –
C=C(CC[C@@H](C)[C@H]1CC[C@H]2C3=C(C(=O)C[C@]12C)[C@@]1(C)CCC(=O)[C@@H](C)[C@@H]1C[C@@H]3O)C(C)C(=O)O (stereo partly shown) [Antcin C] | – | – | significantly activated | significantly reduced | significantly reduced | significantly upregulated | significantly upregulated | –
C=C(CC[C@@H](C)[C@H]1CC[C@H]2C3=C(C(=O)C[C@]12C)[C@@]1(C)CC[C@@H](O)[C@](C)(O)[C@@H]1C[C@@H]3O)C(C)C(=O)O (stereo partly shown) [Antcin K] | – | – | – | significantly reduced | significantly reduced | significantly upregulated | significantly upregulated | –
C=C(CC[C@@H](C(=O)O)[C@H]1CC[C@@]2(C)C3=CC[C@H]4C(C)(C)[C@@H](O)CC[C@]4(C)C3=CC[C@]12C)C(C)C [DEA] | – | – | – | – | – | – | – | relatively weak
